From US6228345A, “In vivo assay for intravasation” (Mount Sinai School of Medicine of New York University, priority 1999, dated 2001)

Legend:
HEp3 cells = experiment: Intravasation assay: chick embryo CAM with Alu-PCR of lower CAM; format: in vivo, human
MMP-9 = experiment: Gelatin gel zymography of HEp3 conditioned medium, MMP-9; format: biochemical, human; details: 80 nM
Experimental: (§1) FIG. 10. […] Serum-free conditioned medium of HEp3 cells was collected and electrophoresed on PAGE by loading 10 μl into each of five wells. The gel was sliced to include one sample per slice and each slice was incubated with marimastat at the indicated concentrations (0-1.6 μM) and the gels were incubated only for 22 hr.
(§2) Ten μl aliquots of conditioned media were electrophoresed at 4° C. on 8% PAGE containing 0.1% gelatin, the gel washed in 2.5% Triton X-100 for 30 min, rinsed in water, and incubated for 40 hrs at 37° C. in buffer containing 50 mM Tris pH 7.7, 5 mM CaCl2, and 0.02% NaN3. To test for inhibition of MMPs by BB2516, HEp3 cell conditioned medium was electrophoresed in quadruplicate. The gel was cut into 4 fragments each containing one sample (lane) and incubated separately as above except that marimastat was added in increasing concentration to the incubation buffer. All gels were stained with Coomassie blue, de-stained and dried between dialysis sheets.

MMP-1 = experiment: Gelatin gel zymography of HEp3 conditioned medium, MMP-1; format: biochemical, human; details: 80 nM
Experimental: as §1, §2

MMP-2 = experiment: Gelatin gel zymography of HEp3 conditioned medium, MMP-2; format: biochemical, human; details: 1.6 μM, highest concentration tested
Experimental: as §1, §2

[1] = system: MMP-1, MMP-2, MMP-3, MMP-7 and MMP-9; details: one range printed for MMP-1, MMP-2, MMP-3, MMP-7 and MMP-9 together; cited from earlier work

CNC(=O)[C@@H](NC(=O)[C@H](CC(C)C)[C@H](O)C(=O)NO)C(C)(C)C [marimastat]
inhibition of intravasation (HEp3 cells; 200 μM inhibitor, compared with 100 μM): less effective | inhibition of intravasation (HEp3 cells; final concentration of 50 nM, separate experiment): more than 60% | inhibition of MMP-9 activity (zymogram) (MMP-9): block most | inhibition of MMP-1 activity (zymogram) (MMP-1): all of the MMP-1 activity | inhibition of MMP-2 activity (zymogram) (MMP-2): residual lysis zone | inhibition of MMP-2 activity (zymogram) (MMP-2; listed as Marimastat): not completely inhibited | IC50 [1]: […]
